Values quoted from earlier work, collected in publication PMC4696931 (Advanced healthcare materials, 2015).

Assays:
[1] = test system: MMP2; settings: linker peptide alone
[2] = test system: MMP2; settings: PEG hydrogels with the peptide as crosslinker

In the case of SGESPAY↓YTA [NRL1], the “reported kcat KM^−1 for MMP2” value [1] is given as 440000 M⁻¹ s⁻¹ and the “time to degradation of hydrogels crosslinked with the sequence in MMP2” value [2] is given as ~ 1 days.
